# Experimental data reported in EP3682883A1, “QUINOLINE DERIVATIVE FOR TREATMENT OF NEUROENDOCRINE TUMORS” (Chia Tai Tianqing Pharmaceutical Group Co., Ltd., priority 2017, dated 2019).
# Key:
# Assay type in all cases: in vivo, human
# [1] = tested on: retroperitoneal neuroendocrine tumor; assay: Clinical case Example 5: treatment of a patient, CT scan of target lesions; details: prior therapy in patient history
# [2] = tested on: ampullary neuroendocrine tumor; assay: Clinical case Example 10: treatment of a patient, CT scan of metastatic lesions; details: prior therapy in patient history; 10mg qd orally; CT and MRI on May 25, 2018
# From the text: A patient, underwent a laparotomy on August 18, 2016, the gallbladder, distal part of the stomach, duodenum, and part of the pancreas were removed. […] The patient was diagnosed with ampullary neuroendocrine tumor (high proliferative activity, mitotic count, […]) on November 4, 2016, which was located in the ampulla, the common bile duct, duodenal papilla and major pancreatic duct were invaded, intravascular tumor thrombus was visible and pancreatic tissue was also invaded, immunohistochemistry: AFP (-).
# 10mg of everolimus (qd) was administered orally from February 7 to May 25, 2018, and the efficacy was evaluated as SD on March 29, 2018.
# A daily dose of 12 mg of dihydrochloride of Compound I capsule was given once a day from July 4, 2018 (two-week administration period and one-week withdrawal period, i.e. three weeks as one treatment cycle).
# [3] = tested on: neuroendocrine tumor which tend to be atypical carcinoid; assay: Clinical case Example 4: treatment of a patient, CT scan of target lesions; details: prior therapy in patient history; 4 mg once a month; after two cycles
# Description: A patient was diagnosed with neuroendocrine tumor which tend to be atypical carcinoid after a chest tumor puncture by pathology exam, then the patient was treated with chemotherapy of paclitaxel, etoposide and cisplatin for three cycles, a CT scan was performed after the treatment, efficacy of the therapy was evaluated as SD, followed by Right anterior mediastinal mass resection and partial right upper lobe resection. […] Local chest radiotherapy was performed in the first to second month after operation, and evaluated as SD after the treatment, during which III° radiation esophagitis occurred. […] Temozolomide and capecitabine was then given for 2 cycles from the 23rd month to 25th month after operation, and efficacy was evaluated as SD (large), during this period, pain in both lower extremities occurred, and even got worse. Then 4 mg of zoledronic acid was given once a month, the efficacy was evaluated as PD by CT scan after two cycles of the treatment, followingly, Shanlong (octreotide acetate microspheres for injection) was given for 1 cycle, the efficacy was evaluated as PD by CT scan which was performed after 27 months postoperatively, and the sum of the target lesion diameters was 179 mm. […]
compound,measurement,setting,value
CCN(CC)CCNC(=O)c1c(C)[nH]c(/C=C2\C(=O)Nc3ccc(F)cc32)c1C [sunitinib malate],efficacy evaluated (prior therapy),[1]; after Saisheng and thymosin,PD (the sum of the diameters of target lesions of tumor increased by more than 20% from the baseline level)
CO[C@H]1C[C@@H]2CC[C@@H](C)[C@@](O)(O2)C(=O)C(=O)N2CCCC[C@H]2C(=O)O[C@H]([C@H](C)C[C@@H]2CC[C@@H](OCCO)[C@H](OC)C2)CC(=O)[C@H](C)/C=C(\C)[C@@H](O)[C@@H](OC)C(=O)[C@H](C)C[C@H](C)/C=C/C=C/C=C/1C [everolimus],CT and MRI result (prior therapy),[2],the disease progressed
thymosin,reexamination (prior therapy),[1]; Saisheng and thymosin given together,no response
O=P(O)(O)C(O)(Cn1ccnc1)P(=O)(O)O [zoledronic acid],efficacy evaluated by CT scan (prior therapy),[3],PD (the sum of the diameters of target lesions of tumor increased by more than 20% from the baseline level)
